Experimental data reported in patent publication US5164411A, “Pyrethroid compositions” (priority 1991, dated 1992).

Tests used:
rats = experiment: 90-day feeding study; assay type: in vivo; conditions: for no observable effect level (NOEL): in diet, at least ninety days
Method: In the 90-day feeding study, conducted in compliance with EPA guideline 82-1, the compound under test was administered continuously in the diet to groups of rats for at least ninety days at concentrations of 0, 150, and 1500 ppm to groups of fifteen Sprague-Dawley rats for cypermethrin and 0, 10, 50, 150, 250, 500, and 900 ppm to groups of ten Fisher 344 rats for sigma-cypermethrin. (The rates for sigma-cypermethrin were lower, because it was expected to be more toxic than cypermethrin.) The cypermethrin isomer content (weight %) of the sigma-cypermethrin technical product used in this study was total isomers--88.2%, S-isomers--82%, cis/trans ratio--53/47. Individual body weight and food consumption values were recorded weekly. At termination, hematology and clinical chemistry determinations were conducted and organ weights were obtained for adrenals, brain, heart, kidneys, liver, and ovaries or testes. Histopathological examination of approximately 40 tissues was conducted on all animals in the control group and in the highest dose group in the cypermethrin study and in the highest two groups (500 and 900 ppm) in the sigma-cypermethrin study. In addition, histopathological examination was performed on the lungs, liver, and kidneys of animals in the mid-dose groups of both studies ([…] and 10, 50, 150, and 250 ppm for sigma-cypermethrin). An ophthalmic examination was conducted on all animals prior to initiation of treatment and prior to final sacrifice.

[1] = test system: alfalfa weevil (Hypera postica); experiment: Field trials, control of alfalfa weevil; assay type: in vivo
Method: (§1) Field trials were conducted in Louisiana, North Carolina, Texas, Kentucky, Tennessee, and Illinois to evaluate the control of alfalfa weevil (Hypera postica). Small plot trials were used in a randomized block design with four replications per treatment. Applications were made with CO2 backpack sprayers. Results were obtained at 3, 7, and 14 days after treatment (DAT) and were converted to percent control based on the untreated check.

Lepidoptera = experiment: Foliar evaluation, average over Lepidoptera; assay type: in vivo; conditions: laboratory
Method: (§2) Cypermethrin and sigma-cypermethrin were tested by foliar application at various concentrations in aqueous solutions containing 9.75% acetone and 0.25% octylphenoxypolyethoxyethanol. Insect species utilized included the cabbage looper (Trichoplusia ni), southern armyworm (Spodoptera eridania), Mexican bean beetle (Epilachna varivestis), tobacco budworm (Heliothis virescens), and corn earworm (Heliothis zea).
(§3) For all insects, pinto beans (Phaseolus vulgaris) plants were treated with the test solutions. The test solutions were applied with a sprayer to the upper and lower surfaces of the plant leaves to runoff. The plants were then allowed to dry and were severed at the base of the stem before being placed in cups. Ten second instar individuals of the appropriate insect species, except the tobacco budworm and corn earworm, were placed in each cup and the cup covered. Tests with the tobacco budworm and corn earworm used four replicates with each replicate containing five second instar insects. In all tests, mortality was read 48 hours later. The sigma-cypermethrin used in the foliar evaluations was the product of Example 2.

certain insect species = experiment: Insecticidal activity, overall statement; assay type: in vivo
Method: as §2, §3

target crop insects = experiment: Field trials, overall statement; assay type: in vivo; conditions: at half the rate of cypermethrin, or even lower
Source text: Field trials conducted on cotton in Louisiana, Mississippi, Alabama, and Arizona consisted of a randomized complete block design of four replications per treatment. Plots were a minimum of 0.2 acres, and all applications were by commercial ground equipment with a minimum of 10 gallons total spray solution per acre. The cypermethrin isomer content (weight %) of the several sigma-cypermethrin technical products used in the field trials were as follows:
Analysis of the data was based on a seasonal average of multiple evaluations taken over a four to six week period (3-4 applications) in trials for control of Heliothis sp.
Field trials conducted on lettuce in California for evaluation of the control of cabbage looper consisted of a randomized complete block design of four replications per treatment. Applications were made to small plots with CO2 backpack sprayer using a minimum of 10 gallons per acre. Results were converted to percent control based on untreated check plots.
as §1, with “Results were obtained at 3, 7, and 14 days after treatment (DAT) and were converted to percent control based on the untreated check.” left out

[2] = test system: female Sprague-Dawley rats; experiment: Teratology; assay type: in vivo, Sprague-Dawley rat; conditions: for embryotoxic or teratogenic effect: at any dose
Method: (§4) These tests were conducted in compliance with EPA guideline 83-3 for the purpose of determining the effects of the test materials on pregnancy and in utero development. The test materials were administered via gavage in corn oil once daily to female Sprague-Dawley rats on days 6 through 15 of presumed gestation. There were 25 animals per dose group. Dosages of 0, 17.5, 37.5, and 75 mg/kg for cypermethrin and 0, 5, 12.5, 25, and 35 mg/kg for sigma-cypermethrin were administered. The cypermethrin isomer content (weight %) of the sigma-cypermethrin technical product used in this study was total isomers--89.1%, S-isomers--82%, cis/trans ratio--51/49. The control animals (0 mg/kg) received corn oil during the treatment period. All dosages were adjusted daily on the basis of body weights.
(§5) Daily observations of the rats were made during the dosage and postdosage periods. On gestation day 20 to 21 the rats were sacrificed for examination of their uterine contents, including the number of live and dead fetuses and the number of resorptions. Fetuses were subsequently examined for malformations.

Teratology = assay type: in vivo, Sprague-Dawley rat; conditions: rat, po; gavage in corn oil, once daily, gestation days 6 through 15; read-out: NOEL
Method: as §4, §5

[3] = test system: rainbow trout (Oncorhynchus mykiss); experiment: Ninety-six-hour flow-through acute toxicity, rainbow trout; assay type: in vivo
Method: (§6) Ninety-six-hour flow-through acute toxicity studies of both cypermethrin and sigma-cypermethrin were conducted in the rainbow trout (Oncorhynchus mykiss) and in the sheepshead minnow (Cyprinodon variagatus) to determine the median-lethal-concentration (LC50) resulting from continuous exposure. For the rainbow trout the exposure medium was well water; for the sheepshead minnow, filtered seawater. Each group of 20 fish (10 per replicate aquarium) was exposed either to one of five concentrations of pyrethroid delivered in a diluter system in dimethylformamide (DMF), to 30 μL/L DMF in the exposure medium (solvent control), or to the exposure medium alone (control). Observations for mortality, morbidity, and other overt signs of toxicity were determined at prescribed intervals. Concentrations of the test materials were measured at the beginning and end of the exposure using a validated HPLC method. The cypermethrin isomer content (weight %) of the sigma-cypermethrin technical product used in this study was total isomers--88.2%, S-isomers--82%, cis/trans ratio--53/47.

[4] = test system: sheepshead minnow (Cyprinodon variagatus); experiment: Ninety-six-hour flow-through acute toxicity, sheepshead minnow; assay type: in vivo
Method: as §6

Structure (SMILES): CC1(C)C(C=C(Cl)Cl)C1C(=O)O[C@H](C#N)c1cccc(Oc2ccccc2)c1 (mixture of isomers) [sigma-cypermethrin, (S)(cyano)(3-phenoxyphenyl)methyl cis/trans-3-(2,2-dichloroethenyl)-2,2-dimethylcyclopropanecarboxylate]
- amount required to show an effect on rats relative to that expected from effect on insects (rats; 90-day feeding): more than three times
- NOEL relative to the cypermethrin value (rats; 90-day feeding, rats): more than one and a half times the cypermethrin value
- no observable effect level (NOEL) (rats): 250 ppm
- % Alfalfa Weevil Control ([1]; Year 1, 0.022 lb ai/A, 3 DAT, average of 4 trials): 96%
- % Alfalfa Weevil Control ([1]; Year 1, 0.022 lb ai/A, 7 DAT, average of 4 trials): 94%
- % Alfalfa Weevil Control ([1]; Year 1, 0.022 lb ai/A, 14 DAT, average of 4 trials): 96%
- % Alfalfa Weevil Control ([1]; Year 2, 0.01 lb ai/A, 3 DAT, average of 6 trials): 93%
- % Alfalfa Weevil Control ([1]; Year 2, 0.01 lb ai/A, 7 DAT, average of 6 trials): 93%
- % Alfalfa Weevil Control ([1]; Year 2, 0.01 lb ai/A, 14 DAT, average of 6 trials): 85%
- % Alfalfa Weevil Control ([1]; Year 2, 0.015 lb ai/A, 3 DAT, average of 6 trials): 94%
- % Alfalfa Weevil Control ([1]; Year 2, 0.015 lb ai/A, 7 DAT, average of 6 trials): 97%
- % Alfalfa Weevil Control ([1]; Year 2, 0.015 lb ai/A, 14 DAT, average of 6 trials): 94%
- % Alfalfa Weevil Control ([1]; Year 2, 0.022 lb ai/A, 3 DAT, average of 6 trials): 94%
- % Alfalfa Weevil Control ([1]; Year 2, 0.022 lb ai/A, 7 DAT, average of 6 trials): 96%
- % Alfalfa Weevil Control ([1]; Year 2, 0.022 lb ai/A, 14 DAT, average of 6 trials): 94%
- average effectiveness relative to cypermethrin (Lepidoptera): 1.9 times
- effectiveness relative to cypermethrin (certain insect species): twice as effective as cypermethrin
- field results relative to cypermethrin (target crop insects): generally gave results essentially equivalent to that obtained with cypermethrin applied at the recommended rate
- embryotoxic or teratogenic effect [2]: no embryotoxic or teratogenic effect
- amount required to show an effect on rats relative to that expected from effect on insects ([2]; teratology): 1.4 times
- NOAEL (Teratology): 12.5 mg/kg
- ratio of the cypermethrin LC50 to the sigma-cypermethrin LC50 [3]: 1.3
- ratio of the cypermethrin LC50 to the sigma-cypermethrin LC50 [4]: 1.64

Structure (SMILES): CC1(C)C(C=C(Cl)Cl)C1C(=O)OC(C#N)c1cccc(Oc2ccccc2)c1 (centres unmarked) [cypermethrin, (cyano)(3-phenoxyphenyl)methyl 3-(2,2-dichloroethenyl)-2,2-dimethylcyclopropanecarboxylate, reference compound]
- no observable effect level (NOEL) (rats): 150 ppm
- % Alfalfa Weevil Control ([1]; Year 2, 0.04 lb ai/A, 3 DAT, average of 6 trials): 94%
- % Alfalfa Weevil Control ([1]; Year 2, 0.04 lb ai/A, 7 DAT, average of 6 trials): 96%
- % Alfalfa Weevil Control ([1]; Year 2, 0.04 lb ai/A, 14 DAT, average of 6 trials): 90%
- embryotoxic or teratogenic effect [2]: no embryotoxic or teratogenic effect
- NOAEL (Teratology): 17.5 mg/kg
